How the values were obtained:
[1] = system: eIF4E phosphorylation (p-eIF4E); assay: Immunoblotting of eIF4E phosphorylation in TMD8 cells; format: cell-based, human
Experimental: (§1) TMD8 human diffuse large B-cell lymphoma line was cultured in RPMI media supplemented with penicillin G (100 U/ml), streptomycin (100 μg/ml), 10% FBS in a humidified atmosphere of 5% CO2 maintained at 37° C. • (b) Drug Treatment
(§2) TMD8 cells were seeded prior to drug treatment. The following day, cells were treated with either DMSO (vehicle control) or MNK inhibitor (Compound 107) at the appropriate dose and time. • (c) Immunoblotting
(§3) Cells were spun down and washed with PBS and lysed in 1× RIPA buffer (Thermo Fisher) for 15 min at 4° C. Lysates were sonicated briefly and clarified by centrifugation for 15 min at 14,000 rpm and supernatants were collected. Protein concentration in the soluble fraction was determined by BCA protein assay (Thermo Scientific). 20 μg of protein were resolved on 4-20% Bis-Tris gradient gel (Invitrogen) and transferred to nitrocellulose membrane. The resulting blots were blocked for 1 hr at room temperature with Odyssey blocking solution (LI-COR) and then incubated with anti-phospho-eIF4E (Millipore), anti-eIF4E (Santa Cruz), anti-CCND3 (Cell Signaling) or anti-IRF7 (Cell Signaling) at 4° C. overnight. I3-actin was used as a loading control. […] The blots were then washed and scanned, specific proteins were detected by using the LI-COR Odyssey infrared imager. • (d) Non-Radioactive Nascent Protein Synthesis Assay

[2] = system: Cyclin D3; assay: Immunoblotting of cyclin D3 protein in TMD8 cells; format: cell-based, human; details: increasing concentrations, 48 hours
Experimental: as §1, §2, §3

[3] = system: IRF7; assay: Immunoblotting of IRF7 protein in TMD8 cells; format: cell-based, human; details: 48 hours, FIG. 6
Experimental: as §1, §2, §3

[4] = system: TMD8 cells; assay: Non-radioactive nascent protein synthesis assay (AHA incorporation); format: cell-based, human
Experimental: as §1, §2
Newly synthesized proteins were detected by using the CLICK-IT Biotin Protein Analysis Detection Kit (Life Technologies; C33372) according to the manufacturer's protocol. Briefly, cells were rinsed with PBS once and incubated in methionine-free media for 30 min in the presence of the compound before being pulsed with the nonradioactive azide-containing methionine analogue AHA for 2 hrs. Cell lysates were then collected for the labeling reactions. The newly synthesized, AHA-incorporated protein was crosslinked to alkyne-derivatized biotin by a copper (I)—catalyzed cycloaddition (CLICK-IT) according to the manufacturer's instructions (Life Technologies). Following the labeling reactions, proteins were precipitated and quantified and subsequently subjected to immunoblotting analysis. Anti-streptavidin-HRP was used to detect newly synthesized proteins that contained biotin-conjugated AHA. Amount of newly synthesized proteins can be quantified by densitometry. • (e) Polysome Profiling

[5] = system: TMD8 cells; assay: Polysome profiling; format: cell-based, human; details: 0.3 or 10 μM, 3 or 48 hours
Experimental: TMD8 human diffuse large B-cell lymphoma line was cultured in RPMI media supplemented with penicillin G (100 U/ml), streptomycin (100 μg/ml), 10% FBS in a humidified atmosphere of 5% CO2 maintained at 37° C. • (b) Drug Treatment TMD8 cells were seeded prior to drug treatment. The following day, cells were treated with either DMSO (vehicle control) or MNK inhibitor (Compound 107) at the appropriate dose and time. • (c) Immunoblotting Cells were washed with cold PBS supplemented with cycloheximide and lysed with 1× mammalian cell lysis buffer for 10 minutes on ice. Lysates were clarified by centrifugation for 10 minutes at 14,000 rpm and supernatants were collected. The clarified lysate was loaded onto a 10-50% sucrose gradient containing 0.1 mg/ml cycloheximide (gradients were prepared using a BioComp Gradient Station) and centrifuged at 40,000 rpm for 2 hours at 4° C. using a SW40Ti rotor in a BECKMAN COULTER Optima L8-[…] ultra centrifuge. Polysome fractions were isolated using the BioComp Gradient Station. • (f) Ribosome Profiling

[6] = system: TMD8 cells; assay: Ribosome profiling (translational rate RPF, translational efficiency, mRNA); format: cell-based, human; details: for # Genes Down Regulated / # Genes Up Regulated: 10 μM
Experimental: as §1, §2
Ribosomal profiling allows for measurement of changes in transcription and translation on a genome-wide basis accompanying inhibition of MNK with Compound 107 treatment of human DLBCL cells. Ribosome profiles of the Compound 107 treated TMD8 cells (about 3×10^6 cells/10 cm plate were harvested for ribosome profiling following drug treatment) were prepared and analyzed for changes in translational efficiencies with respect to potential disease-associated cellular changes accompanying MNK inhibition.
Briefly, cells were washed with cold PBS supplemented with cycloheximide and lysed with 1× mammalian cell lysis buffer for 10 minutes on ice. Lysates were clarified by centrifugation for 10 minutes at 14,000 rpm and supernatants were collected. Cell lysates were processed to generate ribosomal protected fragments and total mRNA according to the instructions included with the ARTSEQ Ribosome Profiling Kit (Illumina). Sequencing of total RNA (RNA) and of ribosome-protected fragments of RNA (RPF) was carried out using RNA-Seq methodology according to the manufacturer's instructions (Illumina). To analyze the ribosomal profiles, RNA-Seq reads were processed with tools from the FASTX-Toolkit (fastq quality trimmer, fastx clipper and fastx trimmer). Unprocessed and processed reads were evaluated for a variety of quality measures using FastQC. Processed reads were mapped to the human genome using Tophat. Gene-by-gene assessment of the number of fragments strictly and uniquely mapping to the coding region of each gene was conducted using HTSeq-count, a component of the HTSeq package. Differential analyses of Compound 107 treatment of TMD8 cells were carried out with the software packages DESeq for transcription (RNA counts) and translational rate (RPF counts) and BABEL (Olshen 2013) for translational efficiency based upon ribosomal occupancy (RPF counts) as a function of RNA level (RNA counts). The Log2 fold change in translational efficiency (TE) between drug treated and control is determined from the Log2 fold change difference in RPF and RNA values (drug treated versus to control).
Genes with low counts in either RPF or RNA were excluded from differential analyses. Biological process classification was done using Gene Ontology term analysis.
TMD8 cells were treated with DMSO or Compound 107 (0.3 or 10 μM) and cell lysates from two biological replicates were collected after 3 or 48 hours after treatment. The cell lysates were divided into two fractions and processed to quantitate the drug effects on the total mRNA (transcriptome) or RNase digested to generate the ribosome protected fragments (translatome). The raw sequencing counts were analyzed using DESeq analysis to determine differential expression or differential ribosome occupancy between DMSO and Compound 107 treatment and are reported as the loge fold change. Quantitation of the ribosome protected fragments (RPF) directly reflects the extent that a given transcript is bound by ribosomes and is a measure of the drug effects on translational rate.
Loge fold change in TE values are calculated from the difference in loge fold change in translational rate (RPF) between drug treated and control, and the loge fold change in total mRNA (drug treated vs. control). Evaluation of TE results in normalizing translation changes to transcript abundance. The statistical significance for TE values was determined using Babel software which was developed for assessing the significance of changes in translational regulation between conditions.

[7] = system: TMD8 cells; assay: Proliferation of TMD8 cells; format: cell-based; details: Homo sapiens
[8] = system: TMD8 cells; assay: Cell survival of TMD8 cells; format: cell-based, human; details: increasing concentrations, data not shown
[9] = system: LAG-3; assay: LAG-3 protein expression in TMD8 cells; format: cell-based, human; details: data not shown
[10] = system: activated T cells; assay: Cell surface PD-1 and LAG-3 on CD3/CD28 activated T cells; format: cell-based
[11] = system: TMD8 cells; assay: Cytokine/chemokine protein expression in TMD8 cells; format: cell-based, human
[12] = system: CD3/CD28 activated T cells; assay: Cytokines/chemokines in CD3/CD28 activated T cells; format: cell-based
[13] = system: eIF4F complex; assay: eIF4G bound to eIF4E (eIF4F complex) in TMD8 cells; format: cell-based, human; details: increased concentrations
[14] = 3 hour, Translational Efficiency
[15] = 3 hour, Translational Rate (RPF)
[16] = 48 hour, Translational Efficiency
[17] = 48 hour, Translational Rate (RPF)

For `Cc1cc(Nc2cc(N)ncn2)c(=O)n2c1C(=O)NC21CCCCC1.Cl` [Compound 107], the EC50 ([1]; Homo sapiens, TMD8 cell line, study report ECB-003, read-out: EC50 for inhibition of p-eIF4E) was 9.7 nM, the “inhibition of eIF4E phosphorylation (western blot)” value ([1]; TMD8 cells, 0.3-10 μM, 3 or 48 hours) was “essentially complete inhibition” and the “cyclin D3 protein level” value [2] was “reduction in cyclin D3”. For the same molecule, the “IRF7 at the protein level” value [3] was “decreased”, the “global protein synthesis rates” value ([4]; 10 μM for 48 hours) was “modest reduction” and the global protein synthesis ([4]; 0.3 or 10 μM for 3 hours and 0.3 μM for 48 hours) was “no impact”. For the same molecule, the global protein synthesis ([4]; 3 hour treatment duration) was “negligible effects”, the “polysome to monosome distribution” value [5] was “not observed to alter” and the “# Genes Down Regulated” value [6, 14] was 24. For the same molecule, the “# Genes Up Regulated” value [6, 14] was 27, the “# Genes Down Regulated” value [6, 15] was 58 and the “# Genes Up Regulated” value [6, 15] was 64. For the same molecule, the “# Genes Down Regulated” value [6, 16] was 31, the “# Genes Up Regulated” value [6, 16] was 15 and the “# Genes Down Regulated” value [6, 17] was 123. For the same molecule, the “# Genes Up Regulated” value [6, 17] was 92, the “number of the 123 MNK-sensitive genes also down regulated at the mRNA expression level” value ([6]; 48 hours, log2≤−0.75, p-value <0.01) was 51 and the “number of genes selectively down regulated at the translational level in the absence of substantial transcript changes” value ([6]; 48 hours, log2≤−0.75, p-value <0.05) was 27. For the same molecule, the “translational efficiency of 3 hour gene set at 300 nM compared with 10 μM” value ([6]; TMD8 cells, 3 hours, FIG. 7) was “equal or lesser extent”, the “PD-1 translationally down regulated” value ([6]; TMD8 cells, p-value=0.033, below significance cutoff) was ~2 fold and the EC50 [7] was 3300 nM. The cell survival [8] was “promoted cell survival”, the “expression of LAG-3 at the protein level” value [9] was “selective decrease” and the “cell surface levels of the immune checkpoint inhibitors PD-1 and LAG-3” value ([10]; CD3/CD28 activated T cells) was “reduction”. The “levels of PD-1 on the surface of activated T cells” value ([10]; data not shown) was “reduced”, the “cytokines evaluated (TNFα, IL6, IL10)” value ([11]; DLBCL cell line TMD8) was “modulation of one or more of the cytokines evaluated” and the “cytokine/chemokine biomarkers (CXCL10, IL6 and IL10) at the protein expression level” value ([11]; data not shown) was “down regulated”. The “select cytokines/chemokines (TNFα, IL10, CXCL10)” value [12] was “reduction” and the “eIF4G bound to eIF4E” value [13] was “decrease”.

Reference: patent US20210010086A1, “MNK BIOMARKERS AND USES THEREOF” (eFFECTOR Therapeutics, Inc., priority 2015, published 2021)
